Data taken from paper PMC12670405, “Second-Generation AURKA-Targeting PROTACs: Structural Optimization toward in Vivo Degradation in Neuroblastoma” (Journal of Medicinal Chemistry, 2025).

Columns and labels:
[1] = system: caspase 3/7 in SK-N-BE(2)-C; assay: Caspase-Glo 3/7 assay; type: cell-based, human; settings: 48 h, 1 μM tariquidar
Protocol: (§1) Neuroblastoma cells were seeded in 384-well plates at different densities ranging from 1200 to 5000 cells/well and allowed to adhere overnight. Compound treatment was performed using the D300e Digital Dispenser (Tecan) in duplicate. At the 48 h time point, a Caspase-Glo 3/7 Assay (Promega, #G8090) was performed following the manufacturer’s protocol, but adapted to add a 1:2 ratio of Caspase-Glo 3/7 reagent volume to sample volume. The readout was performed using the GloMax Discover Microplate Reader (Promega). Caspase 3/7 luminescence values were normalized to that of the DMSO negative control, and mean relative caspase 3/7 luminescence values were calculated from 3 individual experiments.

[2] = system: caspase 3/7 in NGP; assay: Caspase-Glo 3/7 assay; type: cell-based, human; settings: 48 h, 1 μM tariquidar
Protocol: as §1

[3] = system: PLK1; assay: LC-MS/MS proteome profiling; type: cell-based, Homo sapiens; design: key to Significant (24h SK5527vs24h DMSO) FDR0 05: +: Statistical significance for differential regulation was set to a false discovery rate (FDR) of < 0.05 and |log2FC| = 2
Protocol: (§2) IMR-32 cells were seeded in T-25 flasks at a density of 1.7 million cells/flask and treated the next day with DMSO (negative control), SK5527 (500 nM) or MK-5108 (500 nM) for 3 or 24 h (data for MK-5108 not discussed in this manuscript). Cell pellets were harvested at the respective time points, lysed, and the concentration of the obtained protein lysates measured as previously described. Details on further sample preparation, LC–MS/MS, and data analysis can be found in the Supporting Information. The LC–MS/MS proteomics data have been deposited to the ProteomeXchange Consortium via the PRIDE partner repository with the data set identifier PXD061539.
(§3) Supplementary Methods 1 – LC-MS/MS proteomics
(§4) From each sample, 100 µg of protein was isolated, the volumes were equalized with water and SDS and TEAB were added to a final concentration of 5% and 50 mM, respectively. Proteins were reduced and alkylated by addition of 10 mM Tris(2-carboxyethyl)phosphine hydrochloride and 40 mM chloroacetamide and incubation for 30 minutes at 25°C in the dark. Phosphoric acid was added to a final concentration of 1.2%, and samples were subsequently diluted 7-fold with binding buffer containing 90% methanol in 100 mM TEAB, pH 7.55. The samples were loaded on the 96-well S-Trap™ plate (Protifi), placed on top of a deepwell plate, and centrifuged for 2 min at 1,500 x g at RT. After protein binding, the S-trap™ plate was washed three times by adding 200 µl binding buffer and centrifugation for 2 min at 1,500 x g at RT. A new deepwell receiver plate was placed below the 96-well S-Trap™ plate and 50 mM TEAB containing trypsin (1/100, w/w) was added for digestion overnight at 37°C.
(§5) Using centrifugation for 2 min at 1,500 x g, peptides were eluted in three steps, first with 80 µl 50 mM TEAB, then with 80 µl 0.2% formic acid (FA) in water and finally with 80 µl 0.2% FA in water/acetonitrile (ACN) (50/50, v/v). Eluted peptides were dried completely by vacuum centrifugation.
(§6) Peptides were re-dissolved in 20 µl loading solvent A (0.1% trifluoroacetic acid in water/acetonitrile (ACN) (99.5:0.5, v/v)) of which 2 µl of sample was injected for LC-MS/MS analysis on an Ultimate 3000 ProFlow nanoLC system in-line connected to a Orbitrap Exploris 240 mass spectrometer (Thermo) equipped with pneu-Nimbus dual ion source (Phoenix S&T). Trapping was performed at 20 μl/min for 2 min in loading solvent A on a PepMap™ Neo Trap column (Thermo scientific, 300 μm internal diameter (I.D.), 5 μm beads). The peptides were separated on a 250 mm Odyssey Ultimate, 1.7µm C18, 75 µm inner diameter (Ionopticks) kept at a constant temperature of 45°C. Peptides were eluted by a gradient reaching 26,4 % MS solvent B (0.1% FA in acetonitrile) after 80 min, 44% MS solvent B at 95 min, 56% MS solvent B at 100min followed by a 5-minutes wash at 56% MS solvent B and re-equilibration with MS solvent A (0.1% FA in water). The flow rate was set to 250 nl/min. The mass spectrometer was operated in data-independent mode, automatically switching between MS and MS/MS acquisition. Full-scan MS spectra ranging from 375-1500 m/z with a normalized target value of 300%, a maximum fill time of 25 ms and a resolution at of 60,000 were followed by 30 quadrupole isolations with a precursor isolation width of 10 m/z for HCD fragmentation at an NCE of 30% after filling the trap at a normalized target value of 2000% for maximum injection time of 45 ms. MS2 spectra were acquired at a resolution of 15,000 with a scan range of 200-1800 m/z in the Orbitrap analyser without multiplexing. The isolation intervals were set from 400 – 900 m/z with a width of 10 m/z using window placement optimization. The polydimethylcyclosiloxane background ion at 445.120028 Da was used for internal calibration (lock mass) and QCloud has been used to control instrument longitudinal performance during the project.
(§7) Analysis of the mass spectrometry data was performed in DiaNN (version 1.9). Precursor false discovery rate was […]
(§8) set at 1%. […]

[4] = system: ZNF660; assay: LC-MS/MS proteome profiling; type: cell-based, Homo sapiens; design: key to Significant (24h SK5527vs24h DMSO) FDR0 05: +: Statistical significance for differential regulation was set to a false discovery rate (FDR) of < 0.05 and |log2FC| = 2
Protocol: as §2, §3, §4, §5, §6, §7, §8

[5] = system: CKAP2; assay: LC-MS/MS proteome profiling; type: cell-based, Homo sapiens; design: key to Significant (24h SK5527vs24h DMSO) FDR0 05: +: Statistical significance for differential regulation was set to a false discovery rate (FDR) of < 0.05 and |log2FC| = 2
Protocol: as §2, §3, §4, §5, §6, §7, §8

| SMILES | induction of apoptosis (caspase 3/7) upon cotreatment with tariquidar (in words) [1] | induction of apoptosis (caspase 3/7) upon cotreatment with tariquidar (in words) [2] | logFC (3h SK5527vs3h DMSO) ([3]; IMR-32, 3h) | Significant (24h SK5527vs24h DMSO) FDR0 05 ([3]; IMR-32, 24h) | logFC (24h SK5527vs24h DMSO) ([3]; IMR-32, 24h) | logFC PLK1 ([3]; SK5527 vs DMSO (24h)) | logFC (3h SK5527vs3h DMSO) ([4]; IMR-32, 3h) | Significant (24h SK5527vs24h DMSO) FDR0 05 ([4]; IMR-32, 24h) | logFC (24h SK5527vs24h DMSO) ([4]; IMR-32, 24h) | logFC ZNF660 ([4]; SK5527 vs DMSO (24h)) | logFC (3h SK5527vs3h DMSO) ([5]; IMR-32, 3h) | Significant (24h SK5527vs24h DMSO) FDR0 05 ([5]; IMR-32, 24h) | logFC (24h SK5527vs24h DMSO) ([5]; IMR-32, 24h) | logFC CKAP2 ([5]; SK5527 vs DMSO (24h)) |
| --- | --- | --- | --- | --- | --- | --- | --- | --- | --- | --- | --- | --- | --- | --- |
| Cc1cc(Nc2ccc(F)c(CC3(C(=O)N4CCC(CN5CCN(c6ccc(N7CCC(=O)NC7=O)cn6)CC5)CC4)CCN(Cc4cccc(Cl)c4F)CC3)n2)n[nH]1 [SK4454] | significant increased induction of apoptosis | no difference |  |  |  |  |  |  |  |  |  |  |  |  |
| Cc1cc(Nc2ccc(F)c(CC3(C(=O)N4CCC(F)(CN5CCN(c6ccc(N7CCC(=O)NC7=O)cn6)CC5)CC4)CCN(Cc4cccc(Cl)c4F)CC3)n2)n[nH]1 [SK5527] | significant increased induction of apoptosis | no difference | 0.31 | + | 2.19 | 2.19 | -0.15 | + | -2.02 | -2.02 | 0.32 | + | 2.1 | 2.1 |
